# Measured values taken from patent publication US20050136043A1, “TGFbeta signaling inhibitors” (Ludwig Institute for Cancer Research, priority 2003, published 2005).
# Read-outs that look alike come from different tables or passages of the source.
# What was measured:
# GST-TβR-I [1] = molecular target: T1, GST-TβR-I (Homo sapiens, UniProt P36897, T204D); assay: In vitro kinase assay: phosphorylation of GST-Smad3deltaMH1 by GST-TβR-I; type: biochemical
# T1 construct: the complete cytoplasmic part (amino acid residues 148-503) of constitutively active TβR-I (T204D) FLAG-tagged at the C-terminus; made in house; host or cells: E. coli
# T1 sequence (P36897 148-503 T204D): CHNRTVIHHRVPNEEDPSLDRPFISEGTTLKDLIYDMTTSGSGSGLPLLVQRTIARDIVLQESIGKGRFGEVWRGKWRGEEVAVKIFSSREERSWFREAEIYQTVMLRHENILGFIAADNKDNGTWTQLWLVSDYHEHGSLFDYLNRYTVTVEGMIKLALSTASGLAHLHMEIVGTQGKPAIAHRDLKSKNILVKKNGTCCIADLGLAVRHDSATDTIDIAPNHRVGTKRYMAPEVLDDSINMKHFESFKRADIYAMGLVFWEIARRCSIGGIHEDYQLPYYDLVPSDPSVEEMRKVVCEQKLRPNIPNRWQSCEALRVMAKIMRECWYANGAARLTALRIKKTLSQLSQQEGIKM
# [2] = tested on: phosphorylation of endogenous Smad2 by TβR-I in Mv1Lu cells; assay: TGFβ1-dependent phosphorylation of endogenous Smad2 in Mv1Lu cells (pS2 immunoblot); type: cell-based; settings: for Effect of low molecular weight inhibitors on TGFβ1-dependent phosphorylation of Smad2: Mv1Lu cells, TGFβ1 10 ng/ml 30 min, FIG. 3A
# p38 MAP = p38 MAP (Homo sapiens, UniProt Q16539); settings: Calbiochem product data sheets; read-out: IC50 p38 MAP in vitro; cited from earlier work
# GST-TβR-I [3] = molecular target: T1, GST-TβR-I; assay: GST-TβR-I autophosphorylation assay; type: biochemical; settings: peptides at 1 and 10 μM, FIG. 4A
# Method: In vitro kinase assay: GST-TβRI activity was assayed in vitro using the known TβR-I substrates GST-Smad3deltaMH1, GST-Smad2; GST-Smad1 was used as a control for specificity. The reaction mixture (20 μl) contained 20 mM HEPES (pH 7.4), 10 mM MgCl2, 2 mM MnCl2, 1 mM dithiothreitol (DTT), 5 μM ATP plus 0.5 μCi [γ^32P]ATP (Redivue, Amersham Biosciences), and inhibitors at different concentrations. The reaction was initiated by an addition of 0.02 μg purified GST-TβRI, followed by incubation at 22° C. for 20 min. Reaction was terminated by addition of 5 μl of 5× SDS-sample buffer. Samples were subjected to SDS-PAGE followed by analysis in a FujiX2000 phosphorimager. For all in vitro enzyme assays, the percent inhibition was calculated as 100×(1-Ai/A0), where Ai and A0 are levels of GST-Smad phosphorylation in the presence and absence of inhibitors, respectively. […] Phosphorylated GST-Smad3deltaMH1 and autophosphorylated GST-TβRI were analyzed by tryptic phosphopeptide mapping, as described previously.
# A GST-TβR-I autophosphorylation assay was performed in the absence or presence of antp-Sm2S (SEQ ID NO:3), antp-Sm2A (SEQ ID NO:2) and antp-Sm5A (SEQ ID NO:4) peptides at concentrations of 1 and 10 μM, as indicated (FIG. 4A).
# [4] = molecular target: T2, constitutively active TβR-I (Homo sapiens, UniProt P36897, T204D); assay: In vitro kinase assay with immunoprecipitated constitutively active TβR-I expressed in Mv1Lu cells; type: biochemical; settings: immunoprecipitated from Mv1Lu cells, data not shown
# T2 construct: made in house; host or cells: Mv1Lu cells (expressed, immunoprecipitated)
# T2 sequence (P36897 34-503 T204D): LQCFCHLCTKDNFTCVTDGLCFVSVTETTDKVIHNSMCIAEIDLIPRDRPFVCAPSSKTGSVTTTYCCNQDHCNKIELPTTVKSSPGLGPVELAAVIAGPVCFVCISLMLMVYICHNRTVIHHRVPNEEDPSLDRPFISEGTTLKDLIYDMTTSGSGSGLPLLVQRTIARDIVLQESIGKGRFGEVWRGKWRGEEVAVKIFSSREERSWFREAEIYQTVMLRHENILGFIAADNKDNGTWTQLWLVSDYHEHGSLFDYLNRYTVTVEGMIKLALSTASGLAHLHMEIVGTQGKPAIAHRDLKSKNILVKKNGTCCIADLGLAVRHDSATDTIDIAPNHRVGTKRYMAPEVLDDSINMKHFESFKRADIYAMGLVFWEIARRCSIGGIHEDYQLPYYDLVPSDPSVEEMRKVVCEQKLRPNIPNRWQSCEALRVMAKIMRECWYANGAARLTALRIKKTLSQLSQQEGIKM
# Mv1Lu cells = assay: Growth inhibition assay, [3H]thymidine incorporation; type: cell-based; settings: peptide 50 μM, TGFβ1 0.1 ng/ml, 24 hours, FIG. 7
# Method: Growth inhibition assay: Growth inhibition assay with MV1Lu cells, using evaluation of [^3H]thymidine incorporation, was performed as described earlier. Briefly, cells were preincubated with peptides for 30 min, and then treated or not with TGFβ1 (0.1 ng/ml) for 24 h. During the last two hours of incubation, [^3H]thymidine was added. Radioactivity incorporated into DNA was measured in a scintillation counter. No cytotoxic effects of peptides were observed after 24 h incubation with cells, as evaluated by observation of cells in a microscope.
# To explore whether the antp-Sm2A (SEQ ID NO:2) peptide can interfere with the TGFβ-dependent effects on cells, we performed an assay with Mv1Lu cells, which are widely used in studies of TGFβ effects and are potently growth-inhibited by TGFβ [29]. […] [^3H]thymidine was added to cells for last two hours of incubation, and radioactivity incorporated into DNA was measured.
# [5] = in vitro kinase assay, 5 μM ATP, read-out: IC50 GST-TβRI in vitro
# Sequence of p38 MAP (Q16539 whole entry): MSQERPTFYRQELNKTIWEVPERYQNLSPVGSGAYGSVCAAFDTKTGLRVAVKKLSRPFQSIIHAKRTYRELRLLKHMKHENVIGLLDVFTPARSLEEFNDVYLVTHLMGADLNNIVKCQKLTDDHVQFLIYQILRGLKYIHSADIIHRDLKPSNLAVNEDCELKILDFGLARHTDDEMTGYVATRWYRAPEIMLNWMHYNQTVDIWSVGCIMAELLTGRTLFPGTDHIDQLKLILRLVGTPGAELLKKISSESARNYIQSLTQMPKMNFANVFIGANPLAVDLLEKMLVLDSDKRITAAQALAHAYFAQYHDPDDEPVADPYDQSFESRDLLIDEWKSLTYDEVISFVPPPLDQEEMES
compound,measurement,setting,value
CC1CNCCN1S(=O)(=O)c1cccc2cnccc12.Cl (stereo not shown) [H7],IC50,GST-TβR-I [1]; [5],200 µM
same,Effect on the kinase activity of GST-TβR-I (phosphorylation of GST-Smad3deltaMH1),"GST-TβR-I [1]; in vitro kinase assay, FIG. 2A",inhibited
same,Effect of low molecular weight inhibitors on TGFβ1-dependent phosphorylation of Smad2,[2],weaker than that of SB203580
COc1cccc(-c2cc(=O)c3ccccc3o2)c1N [PD98058],Effect on the kinase activity of GST-TβR-I (phosphorylation of GST-Smad3deltaMH1),"GST-TβR-I [1]; in vitro kinase assay, FIG. 2A",did not have an effect
Oc1ccc(-c2nc(-c3ccncc3)c(-c3ccc(F)cc3)[nH]2)cc1 [SB202190],IC50,GST-TβR-I [1]; read-out: IC50 for inhibition of GST-TβR-I,0.02 µM
CCc1[nH]c(-c2ccc(OC)cc2)nc1-c1ccncc1 [SB202474],IC50,GST-TβR-I [1]; [5],30 µM
C[S+]([O-])c1ccc(-c2nc(-c3ccc(F)cc3)c(-c3ccncc3)[nH]2)cc1 (stereo not shown) [SB203580],Effect of low molecular weight inhibitors on TGFβ1-dependent phosphorylation of Smad2,[2],significantly reduced
same,inhibition at 25 µM,"[2]; Mv1Lu, 0.5 h, read-out: Inhibition of TGFβ1-induced Smad2 phosphorylation",57%
Cc1nc(-c2ccncc2)c(-c2ccccc2)o1 [SC68376],IC50,GST-TβR-I [1]; [5],5 µM
same,IC50,p38 MAP,2 to 5 µM
CC[C@H](CO)Nc1nc(NCc2ccccc2)c2ncn(C(C)C)c2n1 [roscovitine],Effect on the kinase activity of GST-TβR-I (phosphorylation of GST-Smad3deltaMH1),GST-TβR-I [1],did not have an effect
CN[C@@H]1C[C@H]2O[C@@](C)([C@@H]1OC)n1c3ccccc3c3c4c(c5c6ccccc6n2c5c31)C(=O)NC4 [staurosporine],Effect on the kinase activity of GST-TβR-I (phosphorylation of GST-Smad3deltaMH1),GST-TβR-I [1],did not have an effect
"RQIKIWFQNRRMKWKKTQMGSPLNPISAVA (listed as Homo sapiens) [antp-Sm5A, penetratin fused to Smad5 C-terminus with serines replaced by alanine; specificity control, reference compound]",Effect of peptides on TGFβ1-dependent phosphorylation of endogenous Smad2,"[2]; Mv1Lu cells pretreated with peptide, 15 min TGFβ1, FIG. 6A",did not have any effect
same,Inhibition of autophosphorylation of GST-TβR-I,GST-TβR-I [3],No or only weak inhibition
same,Inhibition of autophosphorylation of TβR-I,[4],only a marginal effect
same,Reversion of the inhibitory action of TGFβ1 on DNA synthesis,Mv1Lu cells,did not have any effect
